From US20260345619A1 (Principia Biopharma Inc., priority 2023, published 2026)

Legend:
[1] = Participants with ≥2, ≥3, ≥4, ≥5 additional reliever puffs of salbutamol/albuterol or levosalbutamol/levalbuterol; type: in vivo, human; conditions: for Number of participants with ≥2 additional reliever puffs vs baseline on 2 consecutive days / Number of participants with ≥3 additional reliever puffs vs baseline on 2 consecutive days / Number of participants with ≥4 additional reliever puffs vs baseline on 2 consecutive days / Number of participants with ≥5 additional reliever puffs vs baseline on 2 consecutive days / Participants with ≥2 additional reliever puffs vs baseline on 2 consecutive days, figure in parentheses (share) / Participants with ≥3 additional reliever puffs vs baseline on 2 consecutive days, figure in parentheses (share) / Participants with ≥4 additional reliever puffs vs baseline on 2 consecutive days, figure in parentheses (share) / Participants with ≥5 additional reliever puffs vs baseline on 2 consecutive days, figure in parentheses (share): 12-week treatment period
Method: An analysis was performed on the number of participants with ≥2, ≥3, ≥4, and ≥5 additional reliever puffs of salbutamol/albuterol or levosalbutamol/levalbuterol compared with baseline on 2 consecutive days during the treatment period, to assess increase in reliever medication during 12-week treatment period.

BTK = conditions: over 24 h; cited from earlier work
platelet aggregation = conditions: healthy volunteers or patients with ITP; cited from earlier work
[2] = healthy volunteers (N=51), even at supratherapeutic doses; cited from earlier work

With CC(C)(C=C(C#N)C(=O)N1CCC[C@@H](n2nc(-c3ccc(Oc4ccccc4)cc3F)c3c(N)ncnc32)C1)N1CCN(C2COC2)CC1 (mixture of isomers) [rilzabrutinib, (R)-2-[3-[4-amino-3-(2-fluoro-4-phenoxy-phenyl)pyrazolo[3,4-d]pyrimidin-1-yl]piperidine-1-carbonyl]-4-methyl-4-[4-(oxetan-3-yl)piperazin-1-yl]pent-2-enenitrile] the “Number of participants with ≥2 additional reliever puffs vs baseline on 2 consecutive days” value ([1]; 400 mg BID, N = 32) was 6 participants, the “Number of participants with ≥3 additional reliever puffs vs baseline on 2 consecutive days” value ([1]; 400 mg BID, N = 32) was 3 participants and the “Number of participants with ≥4 additional reliever puffs vs baseline on 2 consecutive days” value ([1]; 400 mg BID, N = 32) was 2 participants. For the same compound, the “Number of participants with ≥5 additional reliever puffs vs baseline on 2 consecutive days” value ([1]; 400 mg BID, N = 32) was 2 participants, the “Participants with ≥2 additional reliever puffs vs baseline on 2 consecutive days, figure in parentheses (share)” value ([1]; 400 mg BID, N = 32) was 18.8 and the “Participants with ≥3 additional reliever puffs vs baseline on 2 consecutive days, figure in parentheses (share)” value ([1]; 400 mg BID, N = 32) was 9.4. The “Participants with ≥4 additional reliever puffs vs baseline on 2 consecutive days, figure in parentheses (share)” value ([1]; 400 mg BID, N = 32) was 6.3, the “Participants with ≥5 additional reliever puffs vs baseline on 2 consecutive days, figure in parentheses (share)” value ([1]; 400 mg BID, N = 32) was 6.3 and the “Number of participants with ≥2 additional reliever puffs vs baseline on 2 consecutive days” value ([1]; 400 mg TID, N = 64) was 11 participants. For the same compound, the “Number of participants with ≥3 additional reliever puffs vs baseline on 2 consecutive days” value ([1]; 400 mg TID, N = 64) was 4 participants, the “Number of participants with ≥4 additional reliever puffs vs baseline on 2 consecutive days” value ([1]; 400 mg TID, N = 64) was 3 participants and the “Number of participants with ≥5 additional reliever puffs vs baseline on 2 consecutive days” value ([1]; 400 mg TID, N = 64) was 1 participants. The “Participants with ≥2 additional reliever puffs vs baseline on 2 consecutive days, figure in parentheses (share)” value ([1]; 400 mg TID, N = 64) was 17.2, the “Participants with ≥3 additional reliever puffs vs baseline on 2 consecutive days, figure in parentheses (share)” value ([1]; 400 mg TID, N = 64) was 6.3 and the “Participants with ≥4 additional reliever puffs vs baseline on 2 consecutive days, figure in parentheses (share)” value ([1]; 400 mg TID, N = 64) was 4.7. The “Participants with ≥5 additional reliever puffs vs baseline on 2 consecutive days, figure in parentheses (share)” value ([1]; 400 mg TID, N = 64) was 1.6, the “number of participants with ≥2 to 5 additional reliever puffs compared to baseline” value ([1]; both cohorts, vs. placebo arms, 12-week treatment) was “lower in the rilzabrutinib arms compared to the placebo arms” and the sustained target occupancy (BTK) was “high sustained occupancy over 24 h”. For the same compound, the bleeding problems (platelet aggregation) was “does not lead to bleeding problems” and the “effect on cardiac repolarization” value [2] was “does not exert clinically relevant effects on cardiac repolarization”.
